Results published in patent US10035791B2, “Bicyclic compound and pharmaceutical composition thereof for treating stroke and use thereof” (China Medical University, priority 2016, dated 2018).

Legend:
NSCs = test: Proliferation marker expressions (BrdU, ki-67) of the NSCs, immunofluorescence staining; type: cell-based, mice; conditions: 0.1, 1, 10 μM for 16 hours, especially 1 μM
Procedure: To prepare the NSCs, after removal of meninges, subventricular zones (SVZ) of lateral ventricles from adult mice brain (4 week-of-age) are aseptically isolated and dissociated as previously described (J Cell Sci 2006; 119, 4467-4474). All steps are operated under sterile conditions. Then, neurosphere culture are prepared in neurobasal (NB) medium (Gibco BRL) supplemented with 2% of B27 (Gibco BRL), 2 mM of L-glutamine (PAN Biotech), 100 U/ml of penicillin/[…] of streptomycin (Gibco BRL). For maintenance and expansion of the cultures, the NB/B27 is further supplemented with 2 μg/mL of heparin (Sigma), 20 ng/mL of FGF-2 (R&D Systems) and 20 ng/mL of EGF (R&D Systems). […] For clonal/low density cultures, primary neurospheres grown at high density are dissociated into a single cell suspension and reseeded into 96-well plates at 100 cells per ml of media and the number of newly formed neurospheres is counted after 7 days. In addition, the Bmi-1 expressions, SOX2 expressions, Nestin expressions, Musashi-1 expressions, BrdU expressions and ki-67 expressions of the newly formed neurospheres are determined by the immunofluorescence staining.
To measure the effect of the administration of the Compound 1 on proliferation marker expressions of the NSCs, the NSCs treated with the Compound 1 are detected by the immunofluorescence staining. […]

Bmi-1 [1] = test: Bmi-1 expressions of the NSCs in the SVZ and the DG of the ischemic rats, immunofluorescence staining; type: in vivo, Sprague-Dawley (SD) rats
[2] = system: NSC in the brain of the ischemic rats; test: Proliferation marker expressions (BrdU, ki-67) in the SVZ and DG of the ischemic rats; type: in vivo, Sprague-Dawley (SD) rats
From the text: (§1) The ischemic rats are induced by an ischemia-reperfusion model to simulate transient focal cerebral ischemia in rats. Test animals are male Sprague-Dawley (SD) rats weighing 250-300 g. The rats are anesthetized with chloral hydrate (0.4 g/kg IP) and subjected to cerebral ischemia. The ischemia-reperfusion model is induced by ligations of bilateral common carotid arteries (CCAs) and a right middle cerebral artery (MCA). The bilateral CCAs are clamped with non-traumatic arterial clips, and the right MCA is ligated with an 10-0 nylon suture. After 90 minutes ischemia, the suture on the MCA and the arterial clips on CCAs are removed to allow reperfusion. Core body temperature is monitored with a thermistor probe (Hewlett-Packard Model 21090A probe, Hewlett-Packard Company, Andover, Mass.), and maintained at 37° C. with a heating pad during anesthesia. After recovery from anesthesia, rat body temperature is maintained at 37° C. with a heat lamp.
The ischemic rats treated with different dosages of the Compound 1 (0.1 mg/kg, 1 mg/kg and 10 mg/kg) and the ischemic rats reduced the Bmi-1 expressions or the HIF-1α expressions and then treated with 1 mg/kg of the Compound 1 are decapitated, and the brain tissues thereof are performed the immunofluorescence staining to detect the proliferation marker expressions (BrdU and ki-67) in the brains of the ischemic rats.

ischemic rats = test: Volume of the infarction after cerebral ischemia, TTC staining; type: in vivo, Sprague-Dawley (SD) rats; conditions: 0.1, 1, 10 mg/kg intraperitoneal, 2 days after treatment, vs control, in particular 1 mg/kg, FIGS. 17A, 17B
From the text: as §1
In addition, the ischemic rats are intraperitoneal injected with different dosages of the Compound 1 (0.1 mg/kg, 1 mg/kg and 10 mg/kg). The ischemic rats intraperitoneal injected with vehicle are used as the control. At 2 days after the Compound 1 treatment, the ischemic rats are intracardially perfused with PBS. The brain tissues are removed, immersed in cold PBS, and sliced into 2-mm-thick sections. […]

Bmi-1 [3] = test: Bmi-1 expressions of the brains of 2-ME2 treated ischemic rats, immunohistochemistry and Western blot; type: in vivo, Sprague-Dawley (SD) rats; conditions: 2-ME2 50, 100 or 150 mg/kg intraperitoneal, dose-dependent manner, FIGS. 5B, 5C
From the text: as §1
2-ME2 (Sigma Aldrich, USA) is dissolved in DMSO to obtain a 10 mmol/L solution. For in vivo experiments, the whole procedure is performed as previously described (Clin Cancer Res 2004, 10: 8665-8673). […]

[4] = 2-ME2 treatment plus 1 mg/kg Compound 1

COC(=O)C1=CO[C@@H](O)[C@@H]2C(COC(=O)[C@@H](N)Cc3ccccc3)=CC[C@H]12 [Compound 1]
proportion of the BrdU+ cells in the neurosphere culture (NSCs; FIG. 12B): increases the proportion
proportion of the ki-67+ cells in the neurosphere culture (NSCs; FIG. 12C): increases the proportion
number of Bmi-1+Nestin+ NSCs in the SVZ and the DG (Bmi-1 [1]; 0.1, 1, 10 mg/kg vs control, in particular 1 mg/kg, FIGS. 14A to 14D): significantly increases
numbers of BrdU+ cells in the SVZ and the DG of the brains of the ischemic rats ([2]; 0.1, 1, 10 mg/kg vs control, in particular 1 mg/kg, FIGS. 15A to 15D): significant enhancement
numbers of ki-67+ cells in the SVZ and the DG of the brains of the ischemic rats ([2]; 0.1, 1, 10 mg/kg vs control, in particular 1 mg/kg, FIGS. 15E to 15H): significant enhancement
volume of the infarction (TTC staining) (ischemic rats): much smaller

COc1cc2c(cc1O)CC[C@@H]1[C@@H]2CC[C@]2(C)[C@@H](O)CC[C@@H]12 [Compound 2-ME2, 2-Methoxyestradiol, reference compound]
Compound-1-induced enhancement of Bmi-1+Nestin+ NSCs numbers (Bmi-1 [1]; 100 mg/kg 2-ME2 intraperitoneal plus 1 mg/kg Compound 1): inhibits
Compound 1 increased numbers of the BrdU+ cells in the SVZ and the DG [2, 4]: abolishes
Compound 1 increased numbers of the ki-67+ cells in the SVZ and the DG [2, 4]: abolishes
upregulated Bmi-1 immunoreactivity and protein expressions after the cerebral ischemia (Bmi-1 [3]): suppressed
